{"source": "patent US20220362279A1", "about": "“USE OF OLIGONUCLEOTIDES FOR THE TREATMENT AND PREVENTION OF PAIN” (CONSEJO NACIONAL DE INVESTIGACIONES CIENTÍFICAS Y TÉCNICAS, priority 2018, published 2022)", "tested_on": "rats with post-incisional pain", "experiment": "Cold allodynia in rats with post-incisional pain (plantar incision)", "assay_type": "in vivo, rat", "settings": "6 mg/kg s.c. 48 h and 24 h before incision; particularly apparent 3 days after injury", "text": "In twenty-four rats anesthetized with Isoflurane (5% induction, 2.5% maintenance, 0.8 L/min O2 flow rate; Scott-Cassara, Argentina), the right hind paw plantar skin was cleaned and disinfected. This was followed by a 1-cm longitudinal incision distal to heel and extending towards the toes, as previously described (Xu J, et al., 2011, 24(5): 508-514). The incision involved both plantar skin and fascia. This was followed by identification and longitudinal incision of plantar […] muscle, leaving its insertions intact. After achieving homeostasica, skin was sutured using a 5-0 nylon suture, protected with an antibacterial cream and the animal was returned to its retention cage, under observation, until full recovery from anesthesia.\nRats were subcutaneously administered 6 mg/kg of IMT504, 48 and 24 h before implementing the post-incisional pain model. This was followed by pain-like behavior testing for up to 21 days after injury.\nFor cold allodynia assessment, the reaction to the application of a drop of acetone onto the plantar surface of the hind paw was used, as previously described. Frequency of withdrawal to cold stimuli was measured.", "note": "Strand notation (5' to 3'): a small letter for the sugar, then the base; units joined by * are phosphorothioate-linked, units joined directly phosphodiester-linked; [ ] holds rarer units or linkages, { } end groups; capitals alone tell only the bases. d = 2'-deoxy (DNA)"}
{"substance": "IMT504: synthetic phosphorothioate oligodeoxynucleotide with sequence 5′-TCATCATTTTGTCATTTTGTCATT-3′ (SEQ ID No 1) (DNA dT*dC*dA*dT*dC*dA*dT*dT*dT*dT*dG*dT*dC*dA*dT*dT*dT*dT*dG*dT*dC*dA*dT*dT)", "values": [{"measurement": "cold allodynia after plantar incision", "value": "significant reduction in cold allodynia"}]}
